From US20050165224A1, “Inhibition of penicillin resistance in s. pneumoniae” (priority 2000, published 2005)
≈ marks a conversion by molar mass, not a printed value.

Tests used:
Assay in all cases: Penicillin MIC (E-test / population analysis)
Format in all cases: cell-based
[1] = test system: S. pneumoniae 8249, intact murMN operon; conditions: Streptococcus pneumoniae, strain 8249 (serotype 19A, South African)
Description: (§1) Transformation, population analysis profiles and determination of penicillin resistance level S. pneumoniae R36A and Pen6 were transformed essentially according to published procedures (8). To induce competence, synthetic CSPα was added to the medium at a concentration of 250 ng/ml. The competent cells were then incubated for 30 min at 30° C. in the presence of plasmidic DNA followed by the addition of 2 ml of C+Y medium and a 2 h incubation at 37° C. Transformants were selected on blood agar plates (TSA+3% (v/v) sheep blood) containing 1 μg/ml erythromycin. Population analysis profiles (PAPs) were determined by plating serial dilutions of early stationary phase cultures on plates of TSA containing 5% (v/v) of sheep blood (Micropure Medical Inc, White Bear Lake, Minn.), and different concentrations of Penicillin G (Sigma) (0, 0.01, 0.03, 0.06, 0.125, 0.25, 0.5, 1, 2, 4, 8, 16 ([…]). The PAPs were done with and without the presence of […] erythromycin in the medium. Plates were incubated at 37° C. in a 5% CO2-in-air atmosphere for 24 h and the number of bacteria capable of forming colonies in the presence of various penicillin concentrations was plotted against the concentration of penicillin in the agar medium. Penicillin resistance levels (minimal inhibitory concentration, MIC) were determined by the E-test following the manufacturers guidelines (AB Bidosk, Sweden).

[2] = test system: S. pneumoniae Ala1, intact murMN operon; conditions: Streptococcus pneumoniae, strain Ala1 (serotype 6B, Alaskan)
Description: as §1

[3] = test system: S. pneumoniae Clev2, intact murMN operon; conditions: Streptococcus pneumoniae, read-out: Penicillin MIC
Description: as §1

[4] = test system: S. pneumoniae Hun663, intact murMN operon; conditions: Streptococcus pneumoniae, read-out: Penicillin MIC
Description: as §1

[5] = test system: S. pneumoniae Pen6, intact murMN operon; conditions: Streptococcus pneumoniae, read-out: Penicillin MIC
Description: as §1

[6] = test system: S. pneumoniae R36A, intact murMN operon; conditions: Streptococcus pneumoniae, strain R36A (laboratory strain)
Description: as §1

[7] = test system: S. pneumoniae Sp2150, intact murMN operon; conditions: Streptococcus pneumoniae, strain Sp2150 (serotype 9/14, French/Spanish)
Description: as §1

[8] = test system: S. pneumoniae Pen6, disrupted murMN operon; conditions: Streptococcus pneumoniae, strain Pen6 (transformant)
Description: (§2) Inactivation of the murMN operon. For gene disruption experiments, internal fragments of murM, from the bacterial strains R36A and Pen6, were amplified by PCR and cloned into pJDC9 (9). For amplification of the internal fragment of murM from R36A the following primers were used 5′-[…]-3′ (SEQ ID NO: 26) and 5′-[…]-3′ (SEQ ID NO: 27) giving origin to the plasmid pZOO5. Amplification of the internal fragment of murM from Pen6 was carried out using the primers 5′-[…]-3′ (SEQ ID NO:28) and 5′-[…]-3′ (SEQ ID NO: 29) giving origin to the plasmid pZOO6. For inactivation of the murMN operon in R36A and in Pen6, competent cells of R36A and Pen6 were transformed respectively with plasmids pZOO5 and pZOO6 (FIG. 1B).
(§3) Transformation, population analysis profiles and determination of penicillin resistance level S. pneumoniae R36A and Pen6 were transformed essentially according to published procedures (8). To induce competence, synthetic CSPα was added to the medium at a concentration of 250 ng/ml. The competent cells were then incubated for 30 min at 30° C. in the presence of plasmidic DNA followed by the addition of 2 ml of C+Y medium and a 2 h incubation at 37° C. […] Penicillin resistance levels (minimal inhibitory concentration, MIC) were determined by the E-test following the manufacturers guidelines (AB Bidosk, Sweden).

[9] = test system: S. pneumoniae R36A, disrupted murMN operon; conditions: Streptococcus pneumoniae, strain R36A (laboratory strain)
Description: as §2, §3

[10] = test system: S. pneumoniae Sp2150, disrupted murMN operon; conditions: Streptococcus pneumoniae, strain Sp2150 (serotype 9/14, French/Spanish)
[11] = test system: S. pneumoniae Clev2, disrupted murMN operon; conditions: Streptococcus pneumoniae, strain Clev2 (serotype 23F, Spanish/USA)
[12] = test system: S. pneumoniae Ala1, disrupted murMN operon; conditions: Streptococcus pneumoniae, strain Ala1 (serotype 6B, Alaskan)
[13] = test system: S. pneumoniae Hun663Tr4Tr5, disrupted murMN operon; conditions: Streptococcus pneumoniae, strain Hun663Tr4Tr5 (transformant)

CC1(C)S[C@@H]2[C@H](NC(=O)Cc3ccccc3)C(=O)N2[C@H]1C(=O)O [Penicillin, Penicillin G]
MIC [1]: 6 µg/mL (≈ 17.9 µM)
MIC [2]: 0.12 µg/mL (≈ 0.359 µM)
MIC [3]: 1.6 µg/mL (≈ 4.78 µM)
MIC [4]: 1.6 µg/mL (≈ 4.78 µM)
MIC [5]: 6 µg/mL (≈ 17.9 µM)
MIC [6]: 0.023 µg/mL (≈ 0.0688 µM)
MIC [7]: 1 µg/mL (≈ 2.99 µM)
MIC [8]: 0.032 µg/mL (≈ 0.0957 µM)
MIC [9]: 0.023 µg/mL (≈ 0.0688 µM)
MIC [10]: 0.032 µg/mL (≈ 0.0957 µM)
MIC [11]: 0.016 µg/mL (≈ 0.0478 µM)
MIC [12]: 0.064 µg/mL (≈ 0.191 µM)
MIC [13]: 0.032 µg/mL (≈ 0.0957 µM)
